The values that follow come from US4064128A, “N,[3-(4'-fluorobenzoyl)propyl]-N2 -(2'-chloro-5'-methylphenoxy)ethyl]p i” (Kali-Chemie Aktiengesellschaft, priority 1971, dated 1977).

“Also recorded” adds a separate entry of the source.

The test system of data set [1] is aggression induced by clonidine. Briefly: Inhibition of aggression induced by clonidine (Morpurgo). The note with it: Mus musculus, ip, 30 min before 46.4 mg/kg i.p. clonidine, mice; read-out: Aggression test (Morpurgo), ED50. Type of data set: in vivo. On the procedure:
Test 3. Inhibition of aggression induced by clonidine
This test was described by C. Morpurgo in European Journal of Pharmacology,vol. […] In this test 12 mice are separated into pairs and each mouse is injected intraperitoneally with a dose of the test compound. […] Clonidine at this dosage level produces an aggressive behaviour in the mice which expresses itself in violent bouts of fighting and biting. The mice are observed and their behaviour scored in accordance with a point system. The mice are observed during a period of 30 minutes and each pair of mice scores 2 points if, during any 10 minute interval, two or more encounters or bouts had occurred. Six pairs of mice accordingly cannot score more than a total of 36 points during the 30 minute period, which is rated 100%.

A short description of data set [2]: Acute oral toxicity (LD50 p.o.). Type of data set: in vivo. The settings on record: for LD50 at 168 h: mouse, in vivo, po, mice, single dose, 7 days survival period; for toxicity (in words): compared with the other tested compounds. On the procedure:
Test 1. Acute oral toxicity
The acute oral toxicity (LD50 p.o.) was determined by peroral administration of a single dose of the compound to fasting white male mice.
The lethal dose in terms of milligrams of the compound per kilogram of body weight of the tested animals was computed in accordance with the method described by J. P. Litchfeld and F. Wilcoxon in Journal of Pharmacology and Experimental Therapeutics, vol. 96, page 99 (1949).
The doses that are referred to herein were all computed in accordance with the said method. The results in this test were based upon a survival period of 7 days.

The test system of a further data set is ileum portion. The data set can be described thus: Antihistamine action, Magnus procedure. Further details: species or system Pirbright guinea pigs. The note with it: Cavia porcellus, guinea pig ileum, read-out: Antihistamine action ED50. An excerpt: Test 5. Antihistamine action
The ED50 has been given in mol/1.

The test system of the next data set is phenyl quinone writhing. The data set can be described thus: Analgesic effect, Writhing test (phenyl quinone). Format: in vivo, male albino mice (NMRI strain). The settings on record: for ED (effect equal to amidopyrine 100 mg/kg): Mus musculus, oral dose equivalent to 100 mg/kg oral amidopyrine, phenyl quinone 1.5 mg/kg, read-out: Writhing-test (dose producing same effect as amidopyrine). On the procedure: The analygesic effect of the substance was determined by the Writhing test. The substances to be tested were administered to male albino mice (NMRI strain) in accordance with the method described by E. Sigmund, R. Cadmus and G. Lu in Proc. Soc. exp. […] After 30 minutes, 1.5 mg. of phenyl quinone per kg. of body weight were administered to the test animals through the abdominal cavity. Amidopyrine was orally administered as comparison substance in a dose of 100 mg/kg. The figures set out in Table 2 indicate the oral doses of the compounds according to the invention in mg/kg which produce the same effect as the dose of the comparison substance.

For data set [3], the system named is hexobarbital sleep duration. The data set can be described thus: Sleep prolongation test (hexobarbital). Type of data set: in vivo, female mice. The settings on record: for ED (4-fold prolongation): Mus musculus, po, dose p.o. 30 min before 65 mg/kg i.v. hexobarbital, mice, read-out: Fourfold prolongation of hexobarbital sleep duration; for sedative effect (in words), sleep prolongation and aggression test: prolongation of hexobarbital sleep duration and aggression test. On the procedure: Test 2. Sleep prolongation test
In this test a dose of the test compound is first administered perorally to female mice. After an interval of 30 minutes a dose of 65 milligrams of hexobarbital per kilogram of body weight of the animal is administered intravenously to the mice. The length of the period after administration of the hexabarbital during which the mouse remains sleeping on its side before turning over onto its abdomen, is then noted.

Where [4] appears, read: listed as compound of the invention.

With `O=C(CCCN1CCN(CCOc2ccc([N+](=O)[O-])cc2)CC1)c1ccc(F)cc1` [4-nitrophenyl], the ED50 in data set [1] was found to be 0.7 mg/kg. The molecule also came in with an LD50 at 168 h in data set [2] of 215 mg/kg. Moreover, the IC50 in the data set on ileum portion was 4 nM. Besides, the ED (effect equal to amidopyrine 100 mg/kg) with phenyl quinone writhing is 1.8 mg/kg. Besides, in data set [3], the ED (4-fold prolongation) was determined as 8 mg/kg.
As for `COc1ccc(CN2CCN(CCCC(=O)c3ccc(F)cc3)CC2)cc1` [methoxyphenyl, no O-bridge, reference compound], the ED50 in data set [1] turned out to be 4.7 mg/kg. In data set [2], this molecule came in with an LD50 at 168 h of 431 mg/kg. For the same molecule, the IC50 in the data set on ileum portion is 150 nM. Also, the ED (effect equal to amidopyrine 100 mg/kg) in the data set with phenyl quinone writhing turned out to be 62 mg/kg. Further, the ED (4-fold prolongation) in data set [3] was determined as 33.9 mg/kg.
On to `Cc1ccc(C)c(OCCN2CCN(CCCC(=O)c3ccc(F)cc3)CC2)c1` [2,5-dimethylphenyl], for which the LD50 at 168 h in data set [2] came to 1240 mg/kg. In addition, in the data set with phenyl quinone writhing, the ED (effect equal to amidopyrine 100 mg/kg) was 17 mg/kg. The ED (4-fold prolongation) in data set [3] was 100 mg/kg.
Regarding `Cc1cccc(OCCN2CCN(CCCC(=O)c3ccc(F)cc3)CC2)c1C` [2,3-dimethylphenyl], the ED50 in data set [1] was determined as 4.6 mg/kg. In addition, in data set [2], the LD50 at 168 h was 1040 mg/kg. Further, the ED (effect equal to amidopyrine 100 mg/kg) in the data set with phenyl quinone writhing came out at 23 mg/kg. Also, the ED (4-fold prolongation) in data set [3] is 120 mg/kg.
As for `O=C(CCCN1CCN(CCOc2ccc(Cl)cc2)CC1)c1ccc(F)cc1` [4-chlorophenyl, reference compound], the ED50 in data set [1] worked out at 6 mg/kg. Also, in data set [2], the LD50 at 168 h stood at 336 mg/kg. In addition, the IC50 in the data set on ileum portion was 9 nM. The ED (effect equal to amidopyrine 100 mg/kg) in the data set on phenyl quinone writhing is 5.5 mg/kg. Besides, the ED (4-fold prolongation) in data set [3] is 21.5 mg/kg.
With `Cc1ccc(Cl)c(OCCN2CCN(CCCC(=O)c3ccc(F)cc3)CC2)c1` [2-chloro-5-methylphenyl], in data set [1], the ED50 worked out at 0.35 mg/kg. Further, in data set [2] (setting [4]), the “toxicity (in words)” value is “very substantially lower than that of 4-nitrophenyl; also recorded: low toxicity”. Moreover, the LD50 at 168 h in data set [2] came out at 464 mg/kg. Also, the IC50 in the data set with ileum portion is 7 nM. In addition, the ED (effect equal to amidopyrine 100 mg/kg) in the data set with phenyl quinone writhing was 6 mg/kg. In the data set with phenyl quinone writhing (Writhing test), the “analgesic effect (in words)” value is “good analgesic effects”. Further, in data set [3], the ED (4-fold prolongation) is 7 mg/kg; the “sedative effect (in words), sleep prolongation and aggression test” value (“sedative effect (in words)” below) was “substantially better results in regard to sedative effects”. Also, in data set [3] (setting [4]), the “sedative effect (in words)” value is on record as “the same or better than that of the 4-nitrophenyl compound”.
As for `Cc1cc(C)cc(OCCN2CCN(CCCC(=O)c3ccc(F)cc3)CC2)c1` [3,5-dimethylphenyl], in data set [2], the “toxicity (in words)” value is “even a higher toxicity” and the LD50 at 168 h came out at 297 mg/kg. The ED (effect equal to amidopyrine 100 mg/kg) with phenyl quinone writhing was determined as 6.9 mg/kg. In data set [3], the ED (4-fold prolongation) is 68 mg/kg; the “sedative effect (in words)” value is “less satisfactory sedative effect”.
Consider `Cc1cc(Cl)ccc1OCCN1CCN(CCCC(=O)c2ccc(F)cc2)CC1` [4-chloro-2-methylphenyl], for which, in data set [1], the ED50 is 2.5 mg/kg. In data set [2], this molecule yielded an LD50 at 168 h of 1000 mg/kg. In addition, the IC50 with ileum portion was 17 nM. For the same molecule, the ED (effect equal to amidopyrine 100 mg/kg) in the data set on phenyl quinone writhing worked out at 68.1 mg/kg. In addition, the ED (4-fold prolongation) in data set [3] turned out to be 100 mg/kg.
Take `O=C(CCCN1CCN(Cc2ccc(F)cc2)CC1)c1ccc(F)cc1` [fluorobenzyl, no O-bridge, reference compound]: the ED50 in data set [1] stood at 7.6 mg/kg. The LD50 at 168 h in data set [2] was found to be 431 mg/kg. In the data set with ileum portion, the IC50 worked out at 120 nM. For the same molecule, the ED (effect equal to amidopyrine 100 mg/kg) in the data set with phenyl quinone writhing was found to be 49.5 mg/kg. Moreover, the ED (4-fold prolongation) in data set [3] is 18.5 mg/kg.
`O=C(CCCN1CCN(CCOc2c(Cl)cccc2Cl)CC1)c1ccc(F)cc1` [2,6-dichlorophenyl, reference compound]: the ED50 in data set [1] came out at 7.4 mg/kg. The same molecule gave an LD50 at 168 h in data set [2] of 1020 mg/kg. In data set [3], the ED (4-fold prolongation) came to 117 mg/kg.
